Measurements taken from PubChem BioAssay AID2060893 (Molecular Pharmacology Branch, DTP, NCI, 2025).

System: K86415-001-R-J1-PDC complex spheroids, viability
Assay: Anticancer human tumor K86415-001-R-J1-PDC patient-derived lung adenocarcinoma cell line growth inhibition [RAS]
Conditions: for IC50: curve of first compound; for viability, T/C: stronger effect = lower value
Method in brief: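 Agents were tested in combination matrices in half-log decrements from a top concentration at or near clinical Cmax (10 microM if undetermined). Targets were multi-cell spheroids of tumour lines plus HUVEC and MSC stromal cells.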

[1] = second compound 0.000949 µM, first compound 0.0316 µM
[2] = second compound 0.000949 µM, first compound 0.1 µM
[3] = second compound 0.000949 µM, first compound 0.316 µM
[4] = second compound 0.000949 µM, first compound 1 µM
[5] = second compound 0.003 µM, first compound 0.0316 µM
[6] = second compound 0.003 µM, first compound 0.1 µM
[7] = second compound 0.003 µM, first compound 0.316 µM
[8] = second compound 0.003 µM, first compound 1 µM
[9] = second compound 0.00949 µM, first compound 0.0316 µM
[10] = second compound 0.00949 µM, first compound 0.1 µM
[11] = second compound 0.00949 µM, first compound 0.316 µM
[12] = second compound 0.00949 µM, first compound 1 µM
[13] = second compound 0.03 µM, first compound 0.0316 µM
[14] = second compound 0.03 µM, first compound 0.1 µM
[15] = second compound 0.03 µM, first compound 0.316 µM
[16] = second compound 0.03 µM, first compound 1 µM
[17] = second compound 0.0949 µM, first compound 0.0316 µM
[18] = second compound 0.0949 µM, first compound 0.1 µM
[19] = second compound 0.0949 µM, first compound 0.316 µM
[20] = second compound 0.0949 µM, first compound 1 µM
[21] = second compound 0.3 µM, first compound 0.0316 µM
[22] = second compound 0.3 µM, first compound 0.1 µM
[23] = second compound 0.3 µM, first compound 0.316 µM
[24] = second compound 0.3 µM, first compound 1 µM
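Further: spheroids exposed to agents for seven days before readout.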

O=C(c1ccc(F)c(F)c1Nc1ccc(I)cc1F)N1CC(O)([C@@H]2CCCCN2)C1 + CCn1c(-c2cc(N3CCN(C)CC3)cnc2C(C)OC)c2c3cc(ccc31)-c1csc(n1)CC(NC(=O)C1CC1C)C(=O)N1CCCC(N1)C(=O)OCC(C)(C)C2
IC50 (second compound 0.000949 µM): < 3.16 nM | IC50 (second compound 0.003 µM): < 3.16 nM | IC50 (second compound 0.00949 µM): < 3.16 nM | IC50 (second compound 0.03 µM): < 3.16 nM | IC50 (second compound 0.0949 µM): < 3.16 nM | IC50 (second compound 0.3 µM): < 3.16 nM | viability, T/C (second compound 0.000949 µM, first compound 0.00316 µM): 44.4% | viability, T/C (second compound 0.000949 µM, first compound 0.01 µM): 36.8% | viability, T/C [1]: 16.1% | viability, T/C [2]: 14.3% | viability, T/C [3]: 7.06% | viability, T/C [4]: 3.12% | viability, T/C (second compound 0.003 µM, first compound 0.00316 µM): 20.1% | viability, T/C (second compound 0.003 µM, first compound 0.01 µM): 12.8% | viability, T/C [5]: 8.83% | viability, T/C [6]: 4.83% | viability, T/C [7]: 3.13% | viability, T/C [8]: 1.88% | viability, T/C (second compound 0.00949 µM, first compound 0.00316 µM): 12.8% | viability, T/C (second compound 0.00949 µM, first compound 0.01 µM): 20.7% | viability, T/C [9]: 3.97% | viability, T/C [10]: 3.06% | viability, T/C [11]: 1.18% | viability, T/C [12]: 1.4% | viability, T/C (second compound 0.03 µM, first compound 0.00316 µM): 3.31% | viability, T/C (second compound 0.03 µM, first compound 0.01 µM): 1.65% | viability, T/C [13]: 2.04% | viability, T/C [14]: 1.29% | viability, T/C [15]: 1.25% | viability, T/C [16]: 0.85% | viability, T/C (second compound 0.0949 µM, first compound 0.00316 µM): 2.17% | viability, T/C (second compound 0.0949 µM, first compound 0.01 µM): 1.59% | viability, T/C [17]: 1.36% | viability, T/C [18]: 0.82% | viability, T/C [19]: 0.8% | viability, T/C [20]: 0.95% | viability, T/C (second compound 0.3 µM, first compound 0.00316 µM): 2.23% | viability, T/C (second compound 0.3 µM, first compound 0.01 µM): 1.56% | viability, T/C [21]: 1.42% | viability, T/C [22]: 0.74% | viability, T/C [23]: 0.89% | viability, T/C [24]: 0.77%

Cc1nc(N2CCC3(CC2)COC(C)C3N)c(CO)nc1Sc1ccnc(N)c1Cl (centres undefined) + CCn1c(-c2cccnc2C(C)OC)c2c3cc(ccc31)N1CCOC(CC(NC(=O)C(C(C)C)N(C)C(=O)C3(F)CCN(C(=O)C#CC(C)(C)N(C)C)CC3)C(=O)N3CCCC(N3)C(=O)OCC(C)(C)C2)C1
IC50 (second compound 0.000949 µM): < 31.6 nM | IC50 (second compound 0.003 µM): < 31.6 nM | IC50 (second compound 0.00949 µM): < 31.6 nM | IC50 (second compound 0.03 µM): < 31.6 nM | IC50 (second compound 0.0949 µM): < 31.6 nM | IC50 (second compound 0.3 µM): < 31.6 nM | viability, T/C [1]: 29.3% | viability, T/C [2]: 16.5% | viability, T/C [3]: 7.93% | viability, T/C [4]: 9.19% | viability, T/C (second compound 0.000949 µM, first compound 3.16 µM): 6.66% | viability, T/C (second compound 0.000949 µM, first compound 10 µM): 4.12% | viability, T/C [5]: 8.24% | viability, T/C [6]: 6.74% | viability, T/C [7]: 5.5% | viability, T/C [8]: 7.84% | viability, T/C (second compound 0.003 µM, first compound 3.16 µM): 3.89% | viability, T/C (second compound 0.003 µM, first compound 10 µM): 3.06% | viability, T/C [9]: 7.59% | viability, T/C [10]: 5.87% | viability, T/C [11]: 5.22% | viability, T/C [12]: 4.38% | viability, T/C (second compound 0.00949 µM, first compound 3.16 µM): 3.17% | viability, T/C (second compound 0.00949 µM, first compound 10 µM): 3.06% | viability, T/C [13]: 10.5% | viability, T/C [14]: 6.71% | viability, T/C [15]: 5.16% | viability, T/C [16]: 4.22% | viability, T/C (second compound 0.03 µM, first compound 3.16 µM): 3.35% | viability, T/C (second compound 0.03 µM, first compound 10 µM): 3.62% | viability, T/C [17]: 9.27% | viability, T/C [18]: 6.46% | viability, T/C [19]: 4.18% | viability, T/C [20]: 4.43% | viability, T/C (second compound 0.0949 µM, first compound 3.16 µM): 3.06% | viability, T/C (second compound 0.0949 µM, first compound 10 µM): 2.77% | viability, T/C [21]: 8.31% | viability, T/C [22]: 6.71% | viability, T/C [23]: 5.12% | viability, T/C [24]: 4.01% | viability, T/C (second compound 0.3 µM, first compound 3.16 µM): 3.5% | viability, T/C (second compound 0.3 µM, first compound 10 µM): 2.86%
